Test results as given in patent publication US20240216354A1, “IMMUNOMODULATORY IMIDE DRUGS AS ZETA-CHAIN-ASSOCIATED PROTEIN KINASE 70 (ZAP70) AGONISTS AND USES THEREOF” (Dana-Farber Cancer Institute, Inc., priority 2019, published 2024).

Experiments:
granzyme-B (GZM-B) [1] = experiment: GZM-B expression in KHYG-1 cells (immunoblotting, real-time qPCR); format: cell-based; details: pomalidomide 0.25-1 μM, 24 h
Procedure: (§1) (A) KHYG1 cells were cultured with pomalidomide (0.25-1 μM) for 24 h. (B) Isolated primary NK cells from healthy volunteers (#1, #2) were cultured with pomalidomide (0.3-1 μM) for 24 h. (C) KHYG-1 cells were transfected with Scsi or Zap-70si. After 48 h, cells were cultured for 24 h in the absence or presence (0.5 μM) of pomalidomide. Whole cell lysates and RNAs were subjected to immunoblotting using indicated Abs.
(A) KHYG-1 cells were transfected with Scsi or CRBNsi. After 48 h, cells were cultured in the absence or presence of pomalidomide (0.5 μM) for 24 h, and cell lysates immunoblotted with indicated Abs. (B) KHYG-1 cells were transfected with Scsi or Zap-70si, and then cultured for 72 h with pomalidomide (0.25 μM), in the absence of IL-2. Cells were counted and incubated with calcein AM-labeled U266 for 4 h at indicated effector/target (E/T) ratios.
(A) KHYG-1 cells were transfected with CRBN, IKZF1, or IKZF3 siRNA. The transfectants were then cultured for 24 h with pomalidomide (0.5 μM). The arrow indicates CRBN. (B) KHYG-1 cells were cultured with pomalidomide for 24 h (0.5 μM), in the presence or absence of bortezomib (BTZ; 2.5 and 5 nM). (C, D) KHYG-1 cells were cultured for 24 h with lenalidomide, pomalidomide, or CC-220 (i.e., iberdomide) (0.01-1 μM). Whole cell lysates and RNAs were subjected to immunoblotting using indicated Abs (C) and real-time q-PCR (D), respectively.

Zap-70 [2] = target: T1, Zap-70 (Homo sapiens, UniProt P43403); experiment: Immunoblotting of p-Zap-70 in Jurkat cells; format: cell-based; details: 16 h
T1 sequence (P43403 1-619): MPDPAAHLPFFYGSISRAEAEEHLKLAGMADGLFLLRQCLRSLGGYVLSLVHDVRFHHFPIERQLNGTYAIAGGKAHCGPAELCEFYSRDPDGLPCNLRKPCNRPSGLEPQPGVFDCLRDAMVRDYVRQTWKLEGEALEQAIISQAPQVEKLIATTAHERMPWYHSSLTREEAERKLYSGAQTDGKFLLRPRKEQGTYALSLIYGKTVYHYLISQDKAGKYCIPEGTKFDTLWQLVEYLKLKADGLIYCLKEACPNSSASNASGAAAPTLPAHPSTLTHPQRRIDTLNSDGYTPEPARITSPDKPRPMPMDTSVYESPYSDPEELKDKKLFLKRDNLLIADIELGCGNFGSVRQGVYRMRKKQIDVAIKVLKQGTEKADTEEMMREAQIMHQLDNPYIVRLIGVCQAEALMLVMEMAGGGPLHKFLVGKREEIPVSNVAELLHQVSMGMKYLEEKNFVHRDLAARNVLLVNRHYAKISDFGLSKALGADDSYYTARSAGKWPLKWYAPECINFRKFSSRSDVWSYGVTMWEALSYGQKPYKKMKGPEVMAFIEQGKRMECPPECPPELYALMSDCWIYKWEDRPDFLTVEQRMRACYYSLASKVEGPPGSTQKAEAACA
Procedure: (A) PBMCs were cultured with pomalidomide (“Pom”) (0.01-1 μM) for 16 h. […] (B) PBMCs were cultured with pomalidomide (0.1 and 1 μM) for the indicated time periods. (C) PBMCs were cultured with lenalidomide (“Len”) (1 μM) for 16 h. (D) Primary T-cells from healthy volunteer were cultured with pomalidomide (0.25-1 μM) for 16 h. (E) Jurkat cells were cultured with pomalidomide (0.5 and 1 μM) for 16 h. Whole cell lysates were subjected to immunoblotting (A-E) using indicated Abs. (F) Jurkat cells were cultured with pomalidomide (0.01-1 μM) or lenalidomide (0.01-1 μM) for 72 h. Cell growth was assessed by MTT assay.
(A) Jurkat cells were transfected with scrambled siRNA (Scsi) or CRBN siRNA (CRBNsi). Whole cell lysates were subjected to immunoblotting using indicated Abs. (B) Jurkat cells transfected with Scsi or CRBNsi were cultured with pomalidomide (1 μM) for 16 h. Whole cell lysates were subjected to immunoblotting using indicated Abs. (C) Jurkat cells were transfected with Scsi or Zap-70 siRNA (Zap-70si) (left panel). The transfectants were further cultured for 72 h, and cell growth was assessed by MTT assay (right panel).

granzyme-B (GZM-B) [3] = experiment: GZM-B expression in primary NK cells (immunoblotting); format: cell-based, human; details: primary NK cells #1, #2, pomalidomide 0.3-1 μM, 24 h
Procedure: as §1

Zap-70 [4] = target: T1, Zap-70; experiment: Immunoblotting of p-Zap-70 in NK-92 cells; format: cell-based; details: 24 h, Pom 0.5 and 1 μM, CC-220 0.01, 0.1, 1 μM
Procedure: (A) NK-92 cells were cultured with Pom (0.5 and 1 μM) for 24 h. Whole cell lysates were subjected to immunoblotting using indicated Abs. (B) NK-92 cells were cultured with Pom (0.5 and 1 μM) for 48 h. The cells were subsequently incubated with calcein-AM-stained U266 cells for 4 h at the indicated effector/target (E/T) ratios. Percent specific lysis was calculated as described previously. (C) NK-92 cells were cultured with Pom (0.03-3 μM) for 72 h. Cell growth was assessed by MTT assay. (D) NK-92 cells were transfected with scrambled (Sc) or Zap-70 siRNA (Zap70si). After 72 h incubation, cell viability was measured by trypan-blue dye exclusion. For B, C, and D, data are representative of at least two independent experiments, and values are expressed in mean±SD.
(A) NK-92 cells were cultured with Len (1 μM), Pom (0.01, 0.1, 1 μM) or CC-220 (0.01, 0.1, 1 μM) for 24 h. Whole cell lysates were subjected to immunoblotting using indicated Abs. (B) NK-92 cells were cultured with Pom (0.1 and 1 μM) or CC-220 ([…]) for 48 h. NK cell activity was measured by incubation with calcein AM-labeled U266 cells for 4 h at E/T ratio of 2.5/1. Percent specific lysis was calculated as previously described. Data are representative of three independent experiments, and values are expressed in mean±SD. *: p<0.01.

p-Zap-70 induced by pomalidomide in CRBN-knockdown versus control Sc KD cells (Zap-70 [2]; CRBN siRNA, pomalidomide 1 μM): No significant change
p-Zap-70 (immunoblotting) (Zap-70 [4]): induced increased p-Zap70
Structure (SMILES): Nc1cccc2c1C(=O)N(C1CCC(=O)NC1=O)C2=O (centres unmarked) [pomalidomide]
GZM-B expression (granzyme-B (GZM-B) [1]): upregulated GZM-B expression
p-Zap-70 (immunoblotting) (Zap-70 [2]; pomalidomide 0.5 and 1 μM): similarly induced p-Zap-70 in Jurkat cells in a dose-dependent fashion
GZM-B expression (granzyme-B (GZM-B) [3]): upregulated GZM-B expression
